Patent US10548317B2, “Pesticidally active pyrazole derivatives” (SYNGENTA PARTICIPATIONS AG, priority 2015, dated 2020)

Assays:
Format in all cases: in vivo
[1] = system: Thrips tabaci; test: Thrips tabaci (onion thrips) sunflower leaf disc test; conditions: foliar, 144 h, application rate of 200 ppm, sunflower leaf discs, mixed ages, 6 days after infestation
Procedure: Thrips tabaci (Onion thrips):
Sunflower leaf discs were placed on agar in 24-well microtiter plates and sprayed with aqueous test solutions prepared from 10'000 ppm DMSO stock solutions. After drying the leaf discs were infested with a thrips population of mixed ages. The samples were assessed for mortality 6 days after infestation.

[2] = system: Tetranychus urticae; test: Tetranychus urticae (two-spotted spider mite) bean leaf disc test; conditions: foliar, 192 h, application rate of 200 ppm, bean leaf discs, mixed population (mobile stages), 8 days after infestation
Procedure: Tetranychus urticae (Two-Spotted Spider Mite):
Bean leaf discs on agar in 24-well microtiter plates were sprayed with aqueous test solutions prepared from 10'000 ppm DMSO stock solutions. After drying the leaf discs were infested with a mite population of mixed ages. The samples were assessed for mortality on mixed population (mobile stages) 8 days after infestation.

[3] = system: Diabrotica balteata; test: Diabrotica balteata (corn root worm) maize sprout test; conditions: 96 h, application rate of 200 ppm, maize sprouts, L2 larvae, 4 days after infestation, read-out: effect in at least one of the two categories (mortality or growth inhibition)
Procedure: Diabrotica balteata, (Corn Root Worm)
Maize sprouts, placed on an agar layer in 24-well microtiter plates were treated with aqueous test solutions prepared from 10'000 ppm DMSO stock solutions by spraying. After drying, the plates were infested with L2 larvae (6 to 10 per well). The samples were assessed for mortality and growth inhibition in comparison to untreated samples 4 days after infestation. The following compounds gave an effect of at least 80% in at least one of the two categories (mortality or growth inhibition) at an application rate of 200 ppm: 1, 3, 4, 5, 6, 7, 8, 9, 10, 11, 12, 14, 15, 16, 17, 18, 19, 20, 21, 22, 23, 24, 25, 26, 27, 28, 29, 30, 31, 32, 33, 35, 36, 37, 38, 39, 40, 41, 42, 43, 44, 45, 48, 50, 51, 52, 53, 54 and 55.

[4] = system: Plutella xylostella; test: Plutella xylostella (diamond back moth) artificial diet test; conditions: 120 h, application rate of 200 ppm, L2 larvae, 5 days after infestation, read-out: effect in at least one of the two categories (mortality or growth inhibition)
Procedure: Plutella xylostella (Diamond Back Moth):
24-well microtiter plates with artificial diet were treated with aqueous test solutions prepared from 10'000 ppm DMSO stock solutions by pipetting. After drying, the plates were infested with L2 larvae (10 to 15 per well). The samples were assessed for mortality and growth inhibition in comparison to untreated samples 5 days after infestation. The following compounds gave an effect of at least 80% in at least one of the two categories (mortality or growth inhibition) at an application rate of 200 ppm: 1, 2, 3, 4, 5, 6, 7, 8, 9, 10, 11, 12, 13, 14, 15, 16, 17, 18, 19, 20, 21, 22, 23, 24, 25, 26, 27, 28, 29, 30, 31, 32, 33, 35, 36, 37, 38, 39, 40, 41, 42, 43, 44, 45, 46, 47, 48, 50, 51, 52, 53, 54 and 55.

[5] = system: Spodoptera littoralis; test: Spodoptera littoralis (Egyptian cotton leaf worm) leaf disc spray test; conditions: foliar, 72 h, application rate of 200 ppm, cotton leaf discs, L1 larvae, 3 days after infestation, read-out: control (at least one of mortality, anti-feedant effect, growth inhibition)
Procedure: Spodoptera littoralis (Egyptian Cotton Leaf Worm)
Cotton leaf discs were placed on agar in 24-well microtiter plates and sprayed with aqueous test solutions prepared from 10'000 ppm DMSO stock solutions. After drying the leaf discs were infested with five L1 larvae. The samples were assessed for mortality, anti-feedant effect, and growth inhibition in comparison to untreated samples 3 days after infestation. Control of Spodoptera littoralis by a test sample is when at least one of mortality, anti-feedant effect, and growth inhibition is higher than the untreated sample.

[6] = system: Euschistus heros; test: Euschistus heros (neotropical brown stink bug) soybean leaf test; conditions: 120 h, application rate of 200 ppm, soybean leaves, N2 nymphs, 5 days after infestation, read-out: effect in at least one of the two categories (mortality or growth inhibition)
Procedure: Euschistus heros (Neotropical Brown Stink Bug)
Soybean leaves on agar in 24-well microtiter plates were sprayed with aqueous test solutions prepared from 10'000 ppm DMSO stock solutions. After drying the leaves were infested with N2 nymphs. The samples were assessed for mortality and growth inhibition in comparison to untreated samples 5 days after infestation. The following compounds gave an effect of at least 80% in at least one of the two categories (mortality or growth inhibition) at an application rate of 200 ppm: 3, 4, 5, 6, 9, 10, 12, 14, 15, 16, 17, 18, 20, 24, 27, 28, 29, 31, 32, 33, 36, 37, 38, 42, 43, 45, 50, 52, 53, 54 and 55.

Cn1nc(C(F)(F)C(F)(F)F)c(C(F)(F)F)c1-n1cc(-c2cc(C(=O)N[C@H]3C[C@@H]3C(F)(F)F)c(Cl)s2)cn1 [Compound 33]
≥ 80%: mortality at 200 ppm [1] | mortality at 200 ppm [2] | percent effect (mortality or growth inhibition) at 200 ppm [3] | percent effect (mortality or growth inhibition) at 200 ppm [4] | control (mortality, anti-feedant effect or growth inhibition) at 200 ppm [5] | percent effect (mortality or growth inhibition) at 200 ppm [6]

Cc1sc(-c2cnn(-c3c(C(F)(F)F)c(C(F)(F)C(F)(F)F)nn3C)c2)cc1C(=O)NC1CC1 [Compound 43]
≥ 80%: mortality at 200 ppm [1] | mortality at 200 ppm [2] | percent effect (mortality or growth inhibition) at 200 ppm [3] | percent effect (mortality or growth inhibition) at 200 ppm [4] | control (mortality, anti-feedant effect or growth inhibition) at 200 ppm [5] | percent effect (mortality or growth inhibition) at 200 ppm [6]

Cn1nc(C(F)(F)C(F)(F)F)c(C(F)(F)F)c1-n1cc(-c2cc(C(=O)NC3(C(N)=S)CC3)c(Cl)s2)cn1 [Compound 6, N-(1-carbamothioylcyclopropyl)-2-chloro-5-[1-[2-methyl-5-(1,1,2,2,2-pentafluoroethyl)-4-(trifluoromethyl)pyrazol-3-yl]pyrazol-4-yl]thiophene-3-carboxamide]
≥ 80%: mortality at 200 ppm [1] | mortality at 200 ppm [2] | percent effect (mortality or growth inhibition) at 200 ppm [3] | percent effect (mortality or growth inhibition) at 200 ppm [4] | control (mortality, anti-feedant effect or growth inhibition) at 200 ppm [5] | percent effect (mortality or growth inhibition) at 200 ppm [6]

Cn1nc(C(F)(F)C(F)(F)F)c(C(F)(F)F)c1-n1cc(-c2cc(C(=O)NC3CC3)c(Cl)s2)cn1 [Compound 3, 2-chloro-N-cyclopropyl-5-[1-[2-methyl-5-(1,1,2,2,2-pentafluoroethyl)-4-(trifluoromethyl)pyrazol-3-yl]pyrazol-4-yl]thiophene-3-carboxamide]
≥ 80%: mortality at 200 ppm [1] | mortality at 200 ppm [2] | percent effect (mortality or growth inhibition) at 200 ppm [3] | percent effect (mortality or growth inhibition) at 200 ppm [4] | control (mortality, anti-feedant effect or growth inhibition) at 200 ppm [5] | percent effect (mortality or growth inhibition) at 200 ppm [6]

Cn1nc(C(F)(F)C(F)(F)F)c(C(F)(F)F)c1-n1cc(-c2cc(C(=O)NCC3CC3)c(Cl)s2)cn1 [Compound 27]
≥ 80%: mortality at 200 ppm [1] | mortality at 200 ppm [2] | percent effect (mortality or growth inhibition) at 200 ppm [3] | percent effect (mortality or growth inhibition) at 200 ppm [4] | control (mortality, anti-feedant effect or growth inhibition) at 200 ppm [5] | percent effect (mortality or growth inhibition) at 200 ppm [6]

Cn1nc(C(F)(F)C(F)(F)F)c(C(F)(F)F)c1-n1cc(-c2cc(C(=O)NC3(C(N)=O)CC3)c(Cl)s2)cn1 [Compound 5, N-(1-carbamoylcyclopropyl)-2-chloro-5-[1-[2-methyl-5-(1,1,2,2,2-pentafluoroethyl)-4-(trifluoromethyl)pyrazol-3-yl]pyrazol-4-yl]thiophene-3-carboxamide]
≥ 80%: mortality at 200 ppm [1] | mortality at 200 ppm [2] | percent effect (mortality or growth inhibition) at 200 ppm [3] | percent effect (mortality or growth inhibition) at 200 ppm [4] | control (mortality, anti-feedant effect or growth inhibition) at 200 ppm [5] | percent effect (mortality or growth inhibition) at 200 ppm [6]

CCNC(=O)c1cc(-c2cnn(-c3c(C(F)(F)F)c(C(F)(F)C(F)(F)F)nn3C)c2)sc1Cl [Compound 20]
≥ 80%: mortality at 200 ppm [1] | mortality at 200 ppm [2] | percent effect (mortality or growth inhibition) at 200 ppm [3] | percent effect (mortality or growth inhibition) at 200 ppm [4] | control (mortality, anti-feedant effect or growth inhibition) at 200 ppm [5] | percent effect (mortality or growth inhibition) at 200 ppm [6]

CCN(C(=O)c1cc(-c2cnn(-c3c(C(F)(F)F)c(C(F)(F)C(F)(F)F)nn3C)c2)sc1Cl)C1(C#N)CC1 [Compound 10]
≥ 80%: mortality at 200 ppm [1] | mortality at 200 ppm [2] | percent effect (mortality or growth inhibition) at 200 ppm [3] | percent effect (mortality or growth inhibition) at 200 ppm [4] | control (mortality, anti-feedant effect or growth inhibition) at 200 ppm [5] | percent effect (mortality or growth inhibition) at 200 ppm [6]

C=CCNC(=O)c1cc(-c2cnn(-c3c(C(F)(F)F)c(C(F)(F)C(F)(F)F)nn3C)c2)sc1Cl [Compound 29]
≥ 80%: mortality at 200 ppm [1] | mortality at 200 ppm [2] | percent effect (mortality or growth inhibition) at 200 ppm [3] | percent effect (mortality or growth inhibition) at 200 ppm [4] | control (mortality, anti-feedant effect or growth inhibition) at 200 ppm [5] | percent effect (mortality or growth inhibition) at 200 ppm [6]

Cn1nc(C(F)(F)C(F)(F)F)c(C(F)(F)F)c1-n1cc(-c2cc(C(=O)NC3(C#N)CC3)c(Cl)s2)cn1 [Compound 4, 2-chloro-N-(1-cyanocyclopropyl)-5-[1-[2-methyl-5-(1,1,2,2,2-pentafluoroethyl)-4-(trifluoromethyl)pyrazol-3-yl]pyrazol-4-yl]thiophene-3-carboxamide]
≥ 80%: mortality at 200 ppm [1] | mortality at 200 ppm [2] | percent effect (mortality or growth inhibition) at 200 ppm [3] | percent effect (mortality or growth inhibition) at 200 ppm [4] | control (mortality, anti-feedant effect or growth inhibition) at 200 ppm [5] | percent effect (mortality or growth inhibition) at 200 ppm [6]

Cc1sc(-c2cnn(-c3c(C(F)(F)F)c(C(F)(F)C(F)(F)F)nn3C)c2)cc1C(=O)NC1(C#N)CC1 [Compound 42]
≥ 80%: mortality at 200 ppm [1] | mortality at 200 ppm [2] | percent effect (mortality or growth inhibition) at 200 ppm [3] | percent effect (mortality or growth inhibition) at 200 ppm [4] | control (mortality, anti-feedant effect or growth inhibition) at 200 ppm [5] | percent effect (mortality or growth inhibition) at 200 ppm [6]

Cn1nc(C(F)(F)C(F)(F)F)c(OC(F)F)c1-n1cc(-c2cc(C(=O)NC3CC3)c(Cl)s2)cn1 [Compound 37]
≥ 80%: mortality at 200 ppm [1] | mortality at 200 ppm [2] | percent effect (mortality or growth inhibition) at 200 ppm [3] | percent effect (mortality or growth inhibition) at 200 ppm [4] | control (mortality, anti-feedant effect or growth inhibition) at 200 ppm [5] | percent effect (mortality or growth inhibition) at 200 ppm [6]

Cn1nc(C(F)(F)C(F)(F)F)c(C(F)(F)F)c1-n1cc(-n2cc(C(=O)NC3CC3)c(C(F)(F)F)n2)cn1 [Compound 12]
≥ 80%: mortality at 200 ppm [1] | mortality at 200 ppm [2] | percent effect (mortality or growth inhibition) at 200 ppm [3] | percent effect (mortality or growth inhibition) at 200 ppm [4] | control (mortality, anti-feedant effect or growth inhibition) at 200 ppm [5] | percent effect (mortality or growth inhibition) at 200 ppm [6]
